By MIC is commonly meant the smallest concentration in the dilution series that meets the test's criterion for growth inhibition. A higher MIC goes with weaker potency.

Experiment in all cases: MIC determination on agar (method of Steers et al.)
One experiment deals with Leuconostoc. sp. Format: cell-based, Leuconostoc mesenteroides. The protocol: (§1) A brain-heart medium and agar (Difco Laboratories, Detroit, Mich.) were used. Sensitivity tests were performed on Mueller-Hinton agar (Diagnostics Pasteur, Marne LaCoquette, France). All of the incubations were performed at 37° C.
(§2) The disk diffusion test with disks containing 30 μg of vancomycin or 30 μg of teicoplanin (Diagnostics Pasteur) was used for the initial screening. The method of Steers et al. with 10^4 CFU per spot was used to determine the MIC of the antibiotics (Steers E. et al., Antibiot. Chemother. (Basel) 1959, 9: 307-11)

Another experiment has as its system E. faecalis. The format is cell-based, Enterococcus faecalis. The protocol: as §1, §2
A further experiment relates to E. rhusiopathiae. Format: cell-based, Erysipelothrix rhusiopathiae. As to the method: as §1, §2
Experiment [1] deals with Enterococcus spp. (susceptible). The format is cell-based. The protocol: as §1, §2
In another experiment the test system is Pediococcus spp. Format: cell-based. As to the method: as §1, §2
The next experiment deals with E. gallinarum. Format: cell-based. As to the method:
as §1, §2

Another experiment relates to Lactobacillus spp. The format is cell-based. As to the method:
as §1, §2

A further experiment concerns E. casseliflavus. The format is cell-based. The protocol: as §1, §2
Another experiment relates to E. faecium. Format: cell-based, Enterococcus faecium. As to the method:
as §1, §2

Experiment [2] concerns isolates of E. faecium and E. faecalis resistant to high concentrations of vancomycin. Format: cell-based. The following applies: 15 isolates resistant to high concentrations of vancomycin, including V583-2 and UMH-1. The text has this:
Bacterial strains: 39 isolates of E. faecium (28 strains) and E. faecalis (11 strains) resistant to low and high concentrations of vancomycin and sensitive to teicoplanin were studied (Table II). Among these strains 24 isolates including E. faecalis V583 (Sahm D. et al., Antimicrob. Agents Chemother. 1989, 33: 1588-91) and E. faecium D366 (Gutmnann L. et al., Antimicrob. Agents Chemother. 1992, 36: 77-80) were resistant to low concentrations of vancomycin on the basis of a disk sensitivity test. […] The control strains were well-characterized strains of entercocci belonging to the phenotypes A and C and hybridizing with the probes VanA and VanC, respectively. In particular there are 6 clinical isolates of E. faecium highly resistant to vancomycin and to teicoplanin, including BM4147. The strains of E. gallinarum including […] belonging to class C were also used as controls. Strains of E. casseliflavus are also used as controls, including the strain ATCC 25788, which are isolates intrinsically resistant to low levels of vancomycin and sensitive to teicoplanin (Leclercq R. et al., Antimicrob. Agents Chemother. 1992, 36: 2005-8).
A brain-heart medium and agar (Difco Laboratories, Detroit, Mich.) were used. Sensitivity tests were performed on Mueller-Hinton agar (Diagnostics Pasteur, Marne LaCoquette, France). All of the incubations were performed at 37° C. […]

Setting [3] is: E. gallinarum(3), phenotypic class C, genotypic class C.

≈ marks a conversion by molar mass, not a printed value.

As to `CN[C@H](CC(C)C)C(=O)N[C@H]1C(=O)N[C@@H](CC(N)=O)C(=O)N[C@H]2C(=O)N[C@H]3C(=O)N[C@H](C(=O)N[C@H](C(=O)O)c4cc(O)cc(O)c4-c4cc3ccc4O)[C@H](O)c3ccc(c(Cl)c3)Oc3cc2cc(c3O[C@@H]2O[C@H](CO)[C@@H](O)[C@H](O)[C@H]2O[C@H]2C[C@](C)(N)[C@H](O)[C@H](C)O2)Oc2ccc(cc2Cl)[C@H]1O` [Vancomycin, vancomycin], the MIC is greater than 1 µg/mL in the experiment on Leuconostoc. sp. (Leuconostoc mesenteroides); 2 µg/mL (≈ 1.38 µM) with E. faecalis (Enterococcus faecalis, ATCC29212, E. faecalis strain ATCC 29212); 1020 µg/mL (≈ 707 µM) against E. faecalis (Enterococcus faecalis, E. faecalis strain UMH-1); 64 µg/mL (≈ 44.2 µM) in the experiment with E. faecalis (Enterococcus faecalis, E. faecalis strain V583); 1020 µg/mL (≈ 707 µM) against E. faecalis (Enterococcus faecalis, E. faecalis strain V583-2); 2 µg/mL (≈ 1.38 µM) in the experiment on E. faecalis (Enterococcus faecalis, E. faecalis strain V583-C1). In addition, the MIC against E. faecalis (Enterococcus faecalis, E. faecalis(11), phenotypic class B, genotypic class B) was 4 to 1020 µg/mL (≈ 2.76 to 707 µM); in the experiment on E. rhusiopathiae (Erysipelothrix rhusiopathiae), greater than 1 µg/mL; in experiment [1] (Enterococcus) it was 0.5 to 2 µg/mL (≈ 0.345 to 1.38 µM); in the experiment with Pediococcus spp. (Pediococcus), greater than 1 µg/mL; in the experiment on E. gallinarum (setting [3]), 8 µg/mL (≈ 5.52 µM); against E. gallinarum (Enterococcus gallinarum, GALLINARUM), 8 µg/mL (≈ 5.52 µM). For the same compound, the MIC was greater than 1 µg/mL with Lactobacillus spp. (Lactobacillus); 8 µg/mL (≈ 5.52 µM) against E. casseliflavus (Enterococcus casseliflavus, E. casseliflavus (Table I, strain not given)); 4 to 8 µg/mL (≈ 2.76 to 5.52 µM) in the experiment on E. casseliflavus (Enterococcus casseliflavus, E. casseliflavus(2), phenotypic class C, genotype NC); 1 µg/mL (≈ 0.69 µM) against E. faecium (Enterococcus faecium, ATCC19434, E. faecium strain ATCC 19434); 1020 µg/mL (≈ 707 µM) against E. faecium (Enterococcus faecium, E. faecium strain BM4147); 32 µg/mL (≈ 22.1 µM) against E. faecium (Enterococcus faecium, E. faecium strain D366). For the same compound, the MIC is 2 µg/mL (≈ 1.38 µM) against E. faecium (Enterococcus faecium, E. faecium strain MT10R); 4 to 256 µg/mL (≈ 2.76 to 177 µM) in the experiment on E. faecium (Enterococcus faecium, E. faecium(28), phenotypic class B, genotypic class B); no less than 128 µg/mL in experiment [2].
teicoplanin: the MIC was greater than 1.000 µg/mL in the experiment on Leuconostoc. sp. (Leuconostoc. sp.(1)); 0.5 µg/mL in the experiment on E. faecalis (E. faecalis strain ATCC 29212); 1.0 µg/mL in the experiment on E. faecalis (E. faecalis strain UMH-1); 0.5 µg/mL in the experiment with E. faecalis (E. faecalis strain V583); 1.0 µg/mL with E. faecalis (E. faecalis strain V583-2); 0.5 µg/mL with E. faecalis (E. faecalis strain V583-C1). Moreover, the MIC with E. faecalis (E. faecalis(11), phenotypic class B, genotypic class B) was 0.5 to 1 µg/mL; in the experiment with E. rhusiopathiae (E. rhusiopathiae(1)) it was greater than 1.000 µg/mL; in experiment [1] (Enterococcus spp.(10), phenotypic class Susceptible) it was 0.25 µg/mL; in the experiment with Pediococcus spp. (Pediococcus spp.(2)), greater than 1.000 µg/mL; in the experiment on E. gallinarum (E. gallinarum strain BM4174), 1 µg/mL; in the experiment with E. gallinarum (setting [3]) it was 1 µg/mL. For the same compound, the MIC against Lactobacillus spp. (Lactobacillus spp.(8)) was greater than 1.000 µg/mL; in the experiment on E. casseliflavus (E. casseliflavus (Table I, strain not given)) it was 1 µg/mL; in the experiment with E. casseliflavus (E. casseliflavus(2), phenotypic class C, genotype NC) it was 0.5 to 1 µg/mL; against E. faecium (E. faecium strain ATCC 19434) it was 1 µg/mL; against E. faecium (E. faecium strain BM4147), 512 µg/mL; in the experiment on E. faecium (E. faecium strain D366), 0.5 µg/mL. Also, the minimal inhibitory concentration (MIC) in the experiment with E. faecium (E. faecium strain MT10R) was 0.25 µg/mL; with E. faecium (E. faecium(28), phenotypic class B, genotypic class B), 0.5 to 1 µg/mL.

The record behind these values is patent publication US6569622B1, “Nucleic acids encoding a protein conferring an inducible resistance to glycopeptide, particularly in gram-positive bacteria” (Institut Pasteur, priority 1992, dated 2003).
